{"source": "patent US10098861B1", "about": "(SyneuRx International (Taiwan) Corp., priority 2017, dated 2018)", "settings": "500 mg, >90% RH, ambient temperature, 5 days"}
{"smiles": "O=C([O-])c1ccccc1.[Na+]", "note": "[sodium benzoate]", "values": [{"measurement": "change in XRPD pattern", "result": "significant changes"}]}
